Here are results for 26 compounds from patent US20220073536A1 (Rigel Pharmaceuticals, Inc., priority 2003, published 2022).

In assay [1] the test system is cultured human mast cells (CHMC). Briefly: CHMC low cell density ionomycin activation: tryptase assay. The following applies: read-out: LD Tryptase, CHMC, Iono, 3 pt. It is filed as cell-based.
The test system is the same in assay [2]. Briefly: CHMC low cell density IgE activation: tryptase assay. It is filed as cell-based. The settings on record: IgE activation. Put shortly: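 Anti-IgE-driven degranulation of cultured human mast cells at low density, 1000–1500 cells/well, was induced over 30 min at 37 °C. It was scored by supernatant tryptase activity on a fluorogenic substrate.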
Setting [3] is: Homo sapiens, Mast cell, low cell density, 3 pt.
[4] abbreviates: Homo sapiens, Mast cell, low cell density, 3 pt, read-out: LD Tryptase, CHMC, IgE, 3 pt.
[5] abbreviates: low cell density CHMC, tryptase, 3 pt.
Setting [6] is: low cell density CHMC, tryptase, 3 pt, read-out: LD Tryptase, CHMC, IgE, 3 pt.
Setting [7] is: low cell density CHMC, tryptase, 8 pt, read-out: LD Tryptase, CHMC, IgE, 8 pt.
[8] abbreviates: Homo sapiens, Mast cell, low cell density CHMC, tryptase release, 3 pt.
Where [9] appears, read: Homo sapiens, Mast cell, low cell density CHMC, tryptase release, 3 pt, read-out: LD Tryptase, CHMC, IgE, 3 pt.
Where [10] appears, read: Homo sapiens, Mast cell, low cell density CHMC, tryptase release, 8 pt, read-out: LD Tryptase, CHMC, IgE, 8 pt.
The mark [11] stands for this setting: low cell density CHMC, tryptase release, 3 point.
The mark [12] stands for this setting: low cell density CHMC, tryptase release, 3 point, read-out: LD Tryptase, CHMC, IgE, 3 pt.
The mark [13] stands for this setting: low cell density CHMC, tryptase release, 8 point, read-out: LD Tryptase, CHMC, IgE, 8 pt.
Where [14] appears, read: Homo sapiens, Mast cell, low cell density CHMC, tryptase, 3 pt.
[15] abbreviates: Homo sapiens, Mast cell, low cell density CHMC, tryptase, 3 pt, read-out: LD Tryptase, CHMC, IgE, 3 pt.
[16] abbreviates: Homo sapiens, Mast cell, low cell density CHMC, tryptase, 8 pt, read-out: LD Tryptase, CHMC, IgE, 8 pt.

Some results are limits rather than exact numbers.

Regarding `CNc1ncc(F)c(N(C)c2ccc(OC)nc2OC)n1` [Compound 500], the IC50 in assay [1] (setting [3]) and in assay [2] (setting [4]) was above 10 µM each time.

Turning to `CNC(=O)CNC(=O)c1ccc(Nc2ncc(F)c(Nc3ccc(Cl)c(Cl)c3)n2)cc1` [Compound 1300, N4-(3,4-Dichlorophenyl)-5-fluoro-N2-[4-[N-(N-methylamino)carbonylmethylene]aminocarbonylphenyl]-2,4-pyrimidinediamine], the IC50 was above 10 µM in assay [1] (setting [5]), below 10 µM in assay [2] (setting [6]) and below 10 µM in assay [2] (setting [7]).

Regarding `Cc1cc(C)cc(Nc2ncc(F)c(N(C)c3ccc(OC(C)C)nc3)n2)c1` [Compound 583, N2-(3,5-Dimethylphenyl)-5-fluoro-N4-(2-isopropoxypyrid-5-yl)-N4-methyl-2,4-pyrimidinediamine], the IC50 in assay [1] (Homo sapiens, Mast cell, low cell density CHMC, tryptase release, 3 point) is above 10 µM; in assay [2] (Homo sapiens, Mast cell, low cell density CHMC, tryptase release, 3 point, read-out: LD Tryptase, CHMC, IgE, 3 pt), below 10 µM.

Take `Nc1cccc(Nc2nc(Cl)ncc2F)n1` [Compound 486, N4-(2-Aminopyrid-6-yl)-2-chloro-5-fluoro-4-pyrimidineamine]: the IC50 in assay [1] (setting [3]) and in assay [2] (setting [4]) was above 10 µM in each case.

Take `CN1C(=O)COc2cc(Nc3nc(Nc4ccc(-c5cnco5)cc4)ncc3F)ccc21` [Compound 230]: the IC50 in assay [1] (setting [8]), in assay [2] (setting [9]) and in assay [2] (setting [10]) was above 10 µM in each case.

As to `CC(=O)N1CCN(c2cccc(Nc3ncc(F)c(Nc4ccc5c(c4)OC(F)(F)C(F)(F)O5)n3)c2)CC1` [Compound 431], the values for the IC50 in assay [1] (setting [5]), in assay [2] (setting [6]) and in assay [2] (setting [7]) were above 10 µM, below 10 µM and below 10 µM, respectively.

For the compound `CNC(=O)COc1ccc(Nc2nc(Nc3ccc(OC)c(Cl)c3)ncc2F)cc1Cl` [Compound 602, N2-(3-Chloro-4-methoxyphenyl)-N4-[3-chloro-4-(N-methylamino)carbonylmethyleneoxyphenyl]-5-fluoro-2,4-pyrimidinediamine], the IC50 is above 10 µM in assay [1] (setting [11]), below 10 µM in assay [2] (setting [12]) and below 10 µM in assay [2] (setting [13]).

As for `CCOC(=O)COc1c(C)cc(Nc2ncc(F)c(Nc3ccc4c(n3)NC(=O)C(C)(C)O4)n2)cc1C` [Compound 1038, N2-(3,5-Dimethyl-4-ethoxycarbonylmethyleneoxyphenyl)-N4-(2,2-dimethyl-3-oxo-4H-5-pyrid[1,4]oxazin-6-yl)-5-fluoro-2,4-pyrimidinediamine], the IC50 in assay [1] (low cell density CHMC, tryptase readout, 3 pt) was above 10 µM; in assay [2] (low cell density CHMC, tryptase readout, 8 pt, read-out: LD Tryptase, CHMC, IgE, 8 pt), below 10 µM.

Consider `COc1cc(Nc2ncc(F)c(Nc3ccc4c(c3)N(C)C(=O)C(C)(C)O4)n2)cc(OC)c1` [Compound 397], for which the IC50 in assay [1] (setting [14]), in assay [2] (setting [15]) and in assay [2] (setting [16]) was below 10 µM in each case.

Regarding `CC(=O)N1CCN(c2ccc(Nc3ncc(F)c(Nc4ccc5c(c4)OC(F)(F)C(F)(F)O5)n3)cc2)CC1` [Compound 432], the IC50 in assay [1] (setting [5]) is above 10 µM; in assay [2] (setting [6]), below 10 µM.

Take `COC(=O)c1cc(Nc2ncc(F)c(Nc3ccc4c(c3)NC(=O)C(C)(C)O4)n2)cc(-c2ncco2)c1` [Compound 517, N4-(2,2-Dimethyl-3-oxo-4H-benz[1,4]oxazin-6-yl)-5-fluoro-N2-[5-methoxycarbonyl-3-(oxazol-2-yl)phenyl]-2,4-pyrimidinediamine]: the IC50 in assay [1] (setting [3]) and in assay [2] (setting [4]) was above 10 µM throughout.

Take `CNC(=O)c1ccc(Nc2nc(Nc3cc(C)cc(C)c3)ncc2F)cc1Cl` [Compound 482]: the IC50 in assay [1] (setting [3]) is above 10 µM; in assay [2] (setting [4]) it was below 10 µM; in assay [2] (Homo sapiens, Mast cell, low cell density, 8 pt, read-out: LD Tryptase, CHMC, IgE, 8 pt), below 10 µM.

Take `COc1ccc(Nc2nc(Nc3ccc4c(cnn4CCCNS(C)(=O)=O)c3)ncc2F)cc1Cl` [Compound 832, N4-(3-Chloro-4-methoxyphenyl)-5-fluoro-N2-[1-[3-(N-methylsulfonylamino)propyl]indazol-5-yl]-2,4-pyrimidinediamine]: the values for the IC50 in assay [1] (setting [8]), in assay [2] (setting [9]) and in assay [2] (setting [10]) were above 10 µM, below 10 µM and below 10 µM, respectively.

Consider `COC(=O)COc1ccc(Nc2nc(Nc3ccc4[nH]ccc4c3)ncc2F)cc1Cl` [Compound 618, N4-[3-Chloro-4-(methoxycarbonyl)methyleneoxyphenyl]-5-fluoro-N2-(indol-5-yl)-2,4-pyrimidinediamine], for which the values for the IC50 in assay [1] (setting [11]), in assay [2] (setting [12]) and in assay [2] (setting [13]) were above 10 µM, below 10 µM and below 10 µM, respectively.

As for “N4- (2,2-Dimethyl-3-oxo-4H-benz[1,4]oxazin-6-yl)-5-fluoro-N2-(1-methylindazol-6-yl)-2,4-pyrimidinediamine p-Hydroxybenzenesulfonic Acid Salt [Compound 768]”, the IC50 in assay [1] (setting [5]) was above 10 µM; in assay [2] (setting [6]) it was below 10 µM; in assay [2] (setting [7]), below 10 µM.

Turning to `CN1CCOc2ccc(Nc3nc(Nc4ccc(-c5ncco5)cc4)ncc3F)cc21` [Compound 243, N4-(2,3-Dihydro-4-methyl-2H-benz[1,4]oxazin-6-yl)-5-fluoro-N2-[4-(oxazol-2-yl)phenyl]-2,4-pyrimidinediamine], the IC50 in assay [1] (low cell density CHMC, tryptase release, 3 pt) was above 10 µM; in assay [2] (low cell density CHMC, tryptase release, 3 pt, read-out: LD Tryptase, CHMC, IgE, 3 pt), below 10 µM; in assay [2] (low cell density CHMC, tryptase release, 8 pt, read-out: LD Tryptase, CHMC, IgE, 8 pt) it was below 10 µM.

`Fc1cnc(Nc2cccc(-c3ncco3)c2)nc1Nc1cccc(-c2ncco2)c1` [Compound 1178, N2,N4-Bis[3-(oxazol-2-yl)phenyl]-5-fluoro-2,4-pyrimidinediamine]: the IC50 in assay [1] (setting [14]) and in assay [2] (setting [15]) was above 10 µM in each case.

As for `CC(=O)N(C)c1ccc(Nc2ncc(F)c(NC3CCCC3)n2)cc1` [Compound 1172, N2-[4-(N-Acetyl-N-methylamino)phenyl]-N4-cyclopentyl-5-fluoro-2,4-pyrimidinediamine], the IC50 was above 10 µM in assay [1] (setting [14]) and below 10 µM in assay [2] (setting [15]).

With `CNC(=O)c1cc2cccc(Nc3ncc(F)c(Nc4ccc(OC)c(OC)c4)n3)c2[nH]1` [Compound 421, N4-(3,4-Dimethoxyphenyl)-5-fluoro-N2-[2-(N-methylaminocarbonyl)indol-7-yl]-2,4-pyrimidinediamine], the IC50 is above 10 µM in assay [1] (setting [14]) and below 10 µM in assay [2] (setting [15]).

Turning to `COCCn1ncc2ccc(Nc3ncc(F)c(Nc4ccc(F)c(OC)c4)n3)cc21` [Compound 778, 5-Fluoro-N4-(4-fluoro-3-methoxyphenyl)-N2-[1-(2-methoxyethyl)indazol-6-yl]-2,4-pyrimidinediamine], the IC50 was above 10 µM in assay [1] (setting [8]) and below 10 µM in assay [2] (setting [9]).

On to `CC(C)(C)OC(=O)NC1CCOc2ccc(Nc3nc(Nc4cccc(-c5cnco5)c4)ncc3F)cc21` (stereo not shown) [Compound 1287, N4-(4-N-tert-Butoxycarbonylamino-3,4-dihydro-2H-1-benzopyran-6-yl)-5-fluoro-N2-[3-(oxazol-5-yl)phenyl]-2,4-pyrimidinediamine], for which the IC50 in assay [1] (setting [5]) is above 10 µM; in assay [2] (setting [6]), below 10 µM.

For `COC(=O)c1cc2cc(Nc3ncc(F)c(N(C)c4ccc5c(c4)OCCO5)n3)ccc2o1` [Compound 395], the IC50 in assay [1] (setting [14]), in assay [2] (setting [15]) and in assay [2] (setting [16]) was below 10 µM in each case.

For the compound `CNC(=O)c1cc(Nc2ncc(F)c(Nc3cc(OC)cc(OC)c3)n2)ccc1Cl` [Compound 450], the IC50 was above 10 µM in assay [1] (setting [14]) and below 10 µM in assay [2] (setting [15]).

Regarding “N2- (Bis-2-hydroxyethyl)-N4- (3,4-ethylenedioxyphenyl)-5-fluoro-N4-methyl-2,4-pyrimidinediamine [Compound 492]”, the IC50 in assay [1] (low cell density, 3 pt) is above 10 µM; in assay [2] (low cell density, 3 pt, read-out: LD Tryptase, CHMC, IgE, 3 pt) it was above 10 µM.

Take `CCOC(=O)N1CCN(c2ccc(Nc3ncc(F)c(N(C)C4CCC4)n3)cc2)CC1` [Compound 1148, N4-Cyclobutyl-N2-[4-(4-ethoxycarbonylpiperazino)phenyl]-5-fluoro-N4-methyl-2,4-pyrimidinediamine]: the figures for the IC50 in assay [1] (setting [14]), in assay [2] (setting [15]) and in assay [2] (setting [16]) were above 10 µM, below 10 µM and below 10 µM, respectively.

For `CN1CCN(c2ccc(Nc3ncc(F)c(NC4CCC4)n3)cc2)CC1` [Compound 1110, N4-Cyclobutyl-5-fluoro-N2-[4-(4-methylpiperazino)phenyl]-2,4-pyrimidinediamine], the IC50 in assay [1] (Homo sapiens, Mast cell, low cell density CHMC, tryptase readout, 3 pt) is above 10 µM; in assay [2] (Homo sapiens, Mast cell, low cell density CHMC, tryptase readout, 3 pt, read-out: LD Tryptase, CHMC, IgE, 3 pt), below 10 µM.
